{"source": "patent US7138361B2", "about": "“Herbicidal heterocycles” (E. I. du Pont de Nemours and Company, priority 2000, dated 2006)", "format_in_all_cases": "in vivo", "key": {"Nightshade": {"tested_on": "Nightshade", "assay": "Test C preemergence"}, "Sunflower [1]": {"tested_on": "Sunflower", "assay": "Test C preemergence", "settings": "Rate 125 g/ha; scale 0 to 100, 0 no effect, 100 complete control"}, "[2]": {"tested_on": "Surinam grass (Brachiaria decumbens)", "assay": "Test C preemergence", "method_in_brief": "(§1)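 Pre- and postemergence treatments used a non-phytotoxic solvent/surfactant formulation; post-treated plants measured 2 to 18 cm. Greenhouse hold 12–14 d; % control estimated visually relative to controls.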"}, "[3]": {"tested_on": "bermudagrass (Cynodon dactylon)", "assay": "Test C preemergence", "method_in_brief": "as §1"}, "[4]": {"tested_on": "cocklebur (Xanthium strumarium)", "assay": "Test C preemergence", "method_in_brief": "as §1"}, "[5]": {"tested_on": "common ragweed (Ambrosia elatior)", "assay": "Test C preemergence", "method_in_brief": "as §1"}, "corn (Zea mays)": {"tested_on": "corn (Zea mays)", "assay": "Test C preemergence", "method_in_brief": "as §1"}, "[6]": {"tested_on": "crabgrass (Digitaria sanguinalis)", "assay": "Test C preemergence", "method_in_brief": "as §1"}, "[7]": {"tested_on": "giant foxtail (Setaria faberii)", "assay": "Test C preemergence", "method_in_brief": "as §1"}, "[8]": {"tested_on": "goosegrass (Eleusine indica)", "assay": "Test C preemergence", "method_in_brief": "as §1"}, "[9]": {"tested_on": "johnsongrass (Sorghum halepense)", "assay": "Test C preemergence", "method_in_brief": "as §1"}, "kochia (Kochia scoparia)": {"tested_on": "kochia (Kochia scoparia)", "assay": "Test C preemergence", "method_in_brief": "as §1"}, "[10]": {"tested_on": "lambsquarters (Chenopodium album)", "assay": "Test C preemergence", "method_in_brief": "as §1"}, "[11]": {"tested_on": "morningglory (Ipomoea hederacea)", "assay": "Test C preemergence", "method_in_brief": "as §1"}, "[12]": {"tested_on": "pigweed (Amaranthus retroflexus)", "assay": "Test C preemergence", "method_in_brief": "as §1"}, "soybean (Glycine max)": {"tested_on": "soybean (Glycine max)", "assay": "Test C preemergence", "method_in_brief": "as §1"}, "[13]": {"tested_on": "velvetleaf (Abutilon theophrasti)", "assay": "Test C preemergence", "method_in_brief": "as §1"}, "[14]": {"tested_on": "woolly cupgrass (Eriochloa villosa)", "assay": "Test C preemergence", "method_in_brief": "as §1"}, "[15]": {"tested_on": "yellow nutsedge (Cyperus esculentus)", "assay": "Test C preemergence", "method_in_brief": "as §1"}, "[16]": {"tested_on": "barnyardgrass (Echinochloa crus-galli)", "assay": "Test C flooded paddy test", "settings": "for Barnyardgrass plant response rating: Flooded Paddy, scale 0 to 100, 0 no effect, 100 complete control; for Plant response rating, Barnyardgrass / Plant response rating (scale 0 to 100), Barnyardgrass: flooded paddy test; for Plant response rating, Barnyardgrass: scale 0 to 100 (0 no effect, 100 complete control)", "method_in_brief": "(§2)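 Rice and three paddy weeds were grown to the 2-leaf stage under flooded conditions, then treated and kept in a greenhouse for 12–14 days. Response was rated visually against untreated controls on a 0–100 scale, where 100 is complete control.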"}, "rice (Oryza saliva)": {"tested_on": "rice (Oryza saliva)", "assay": "Test C flooded paddy test", "settings": "for Rice plant response rating: Flooded Paddy, scale 0 to 100, 0 no effect, 100 complete control; for Plant response rating, Rice / Plant response rating (scale 0 to 100), Rice: flooded paddy test; for Plant response rating, Rice: scale 0 to 100 (0 no effect, 100 complete control)", "method_in_brief": "as §2"}, "Sunflower [17]": {"tested_on": "Sunflower", "assay": "Test C preemergence", "settings": "Rate 500 g/ha, visual evaluation after 12 to 14 days"}, "[18]": {"settings": "Rate 125 g/ha, scale 0 to 100, 0 no effect, 100 complete control"}, "[19]": {"settings": "preemergence, Rate 62 g/ha, scale 0 to 100"}, "[20]": {"settings": "preemergence, Rate 500 g/ha, visual evaluation after 12 to 14 days"}, "[21]": {"settings": "preemergence, Rate 250 g/ha, scale 0 to 100, 0 no effect, 100 complete control"}, "[22]": {"settings": "Rate 16 g/ha, visually evaluated after 12 to 14 days, 0 = no effect, 100 = complete control"}, "[23]": {"settings": "under head Rate 16 g/ha, (own rate not given), after 12 to 14 days"}}}
{"smiles": "CCCC(C)c1ccn(C2OCN(c3cccc(OC(F)(F)F)c3)C2=O)n1", "note": "(stereo not shown) [Compound 91]", "values": [{"measurement": "Plant response rating, Nightshade", "setting": "Nightshade; Rate 62 g/ha, scale 0 to 100", "value": 0}, {"measurement": "Plant response rating, Nightshade", "setting": "Nightshade; [18]", "value": 0}, {"measurement": "Plant response rating, Nightshade", "setting": "Nightshade; Rate 250 g/ha, scale 0 to 100, 0 no effect, 100 complete control", "value": 0}, {"measurement": "Plant response rating, Sunflower", "setting": "Sunflower [1]", "value": 0}, {"measurement": "Plant response rating, Surinam grass", "setting": "[2]; [18]", "value": 30}, {"measurement": "Plant response rating, Surinam grass", "setting": "[2]; [19]", "value": 0}, {"measurement": "Plant response rating (0 to 100), Surinam grass", "setting": "[2]; [20]", "value": 80}, {"measurement": "Plant response rating, Surinam grass", "setting": "[2]; [21]", "value": 30}, {"measurement": "Plant response rating, Bermudagrass", "setting": "[3]; [18]", "value": 100}, {"measurement": "Plant response rating, Bermudagrass", "setting": "[3]; [19]", "value": 10}, {"measurement": "Plant response rating (0 to 100 where 0 is no effect and 100 is complete control), Bermudagrass", "setting": "[3]; [20]", "value": 100}, {"measurement": "Plant response rating, Bermudagrass", "setting": "[3]; [21]", "value": 100}, {"measurement": "Plant response rating, Cocklebur", "setting": "[4]; [18]", "value": 0}, {"measurement": "Plant response rating, Cocklebur", "setting": "[4]; [19]", "value": 0}, {"measurement": "Plant response rating (0 to 100), Cocklebur", "setting": "[4]; [20]", "value": 10}, {"measurement": "Plant response rating, Cocklebur", "setting": "[4]; [21]", "value": 0}, {"measurement": "Plant response rating, Ragweed, Common", "setting": "[5]; [18]", "value": 0}, {"measurement": "Plant response rating, Ragweed, Common", "setting": "[5]; [19]", "value": 0}, {"measurement": "Plant response rating (0 to 100), Ragweed, Common", "setting": "[5]; [20]", "value": 0}, {"measurement": "Plant response rating, Ragweed, Common", "setting": "[5]; [21]", "value": 0}, {"measurement": "Plant response rating, Corn", "setting": "corn (Zea mays); [18]", "value": 0}, {"measurement": "Plant response rating, Corn", "setting": "corn (Zea mays); [19]", "value": 0}, {"measurement": "Plant response rating (0 to 100), Corn", "setting": "corn (Zea mays); [20]", "value": 10}, {"measurement": "Plant response rating, Corn", "setting": "corn (Zea mays); [21]", "value": 10}, {"measurement": "Plant response rating, Crabgrass", "setting": "[6]; [18]", "value": 100}, {"measurement": "Plant response rating, Crabgrass", "setting": "[6]; [19]", "value": 100}, {"measurement": "Plant response rating (0 to 100), Crabgrass", "setting": "[6]; [20]", "value": 100}, {"measurement": "Plant response rating, Crabgrass", "setting": "[6]; [21]", "value": 100}, {"measurement": "Plant response rating, Foxtail, Giant", "setting": "[7]; [18]", "value": 30}, {"measurement": "Plant response rating, Foxtail, Giant", "setting": "[7]; [19]", "value": 10}, {"measurement": "Plant response rating (0 to 100), Foxtail, Giant", "setting": "[7]; [20]", "value": 100}, {"measurement": "Plant response rating, Foxtail, Giant", "setting": "[7]; [21]", "value": 30}, {"measurement": "Plant response rating, Goosegrass", "setting": "[8]; [18]", "value": 100}, {"measurement": "Plant response rating, Goosegrass", "setting": "[8]; [19]", "value": 90}, {"measurement": "Plant response rating (0 to 100), Goosegrass", "setting": "[8]; [20]", "value": 100}, {"measurement": "Plant response rating, Goosegrass", "setting": "[8]; [21]", "value": 100}, {"measurement": "Plant response rating, Johnsongrass", "setting": "[9]; [18]", "value": 80}, {"measurement": "Plant response rating, Johnsongrass", "setting": "[9]; [19]", "value": 20}, {"measurement": "Plant response rating (0 to 100), Johnsongrass", "setting": "[9]; [20]", "value": 100}, {"measurement": "Plant response rating, Johnsongrass", "setting": "[9]; [21]", "value": 90}, {"measurement": "Plant response rating, Kochia", "setting": "kochia (Kochia scoparia); [18]", "value": 90}, {"measurement": "Plant response rating, Kochia", "setting": "kochia (Kochia scoparia); [19]", "value": 20}, {"measurement": "Plant response rating (0 to 100), Kochia", "setting": "kochia (Kochia scoparia); [20]", "value": 100}, {"measurement": "Plant response rating, Kochia", "setting": "kochia (Kochia scoparia); [21]", "value": 90}, {"measurement": "Plant response rating, Lambsquarters", "setting": "[10]; [18]", "value": 100}, {"measurement": "Plant response rating, Lambsquarters", "setting": "[10]; [19]", "value": 90}, {"measurement": "Plant response rating (0 to 100), Lambsquarters", "setting": "[10]; [20]", "value": 100}, {"measurement": "Plant response rating, Lambsquarters", "setting": "[10]; [21]", "value": 100}, {"measurement": "Plant response rating, Morningglory", "setting": "[11]; [18]", "value": 0}, {"measurement": "Plant response rating, Morningglory", "setting": "[11]; [19]", "value": 0}, {"measurement": "Plant response rating (0 to 100), Morningglory", "setting": "[11]; [20]", "value": 0}, {"measurement": "Plant response rating, Morningglory", "setting": "[11]; [21]", "value": 0}, {"measurement": "Plant response rating, Pigweed", "setting": "[12]; [18]", "value": 0}, {"measurement": "Plant response rating, Pigweed", "setting": "[12]; [19]", "value": 0}, {"measurement": "Plant response rating (0 to 100), Pigweed", "setting": "[12]; [20]", "value": 100}, {"measurement": "Plant response rating, Pigweed", "setting": "[12]; [21]", "value": 0}, {"measurement": "Plant response rating, Soybean", "setting": "soybean (Glycine max); [18]", "value": 0}, {"measurement": "Plant response rating, Soybean", "setting": "soybean (Glycine max); [19]", "value": 0}, {"measurement": "Plant response rating (0 to 100), Soybean", "setting": "soybean (Glycine max); [20]", "value": 0}, {"measurement": "Plant response rating, Soybean", "setting": "soybean (Glycine max); [21]", "value": 0}, {"measurement": "Plant response rating, Velvetleaf", "setting": "[13]; [18]", "value": 0}, {"measurement": "Plant response rating, Velvetleaf", "setting": "[13]; [19]", "value": 0}, {"measurement": "Plant response rating (0 to 100), Velvetleaf", "setting": "[13]; [20]", "value": 0}, {"measurement": "Plant response rating, Velvetleaf", "setting": "[13]; [21]", "value": 0}, {"measurement": "Plant response rating, Cupgrass, Woolly", "setting": "[14]; [18]", "value": 70}, {"measurement": "Plant response rating, Cupgrass, Woolly", "setting": "[14]; [19]", "value": 10}, {"measurement": "Plant response rating (0 to 100), Cupgrass, Woolly", "setting": "[14]; [20]", "value": 100}, {"measurement": "Plant response rating, Cupgrass, Woolly", "setting": "[14]; [21]", "value": 90}, {"measurement": "Plant response rating, Nutsedge", "setting": "[15]; [18]", "value": 0}, {"measurement": "Plant response rating, Nutsedge", "setting": "[15]; [19]", "value": 0}, {"measurement": "Plant response rating (0 to 100), Nutsedge", "setting": "[15]; [20]", "value": 0}, {"measurement": "Plant response rating, Nutsedge", "setting": "[15]; [21]", "value": 0}, {"measurement": "Barnyardgrass plant response rating", "setting": "[16]; Rate 250 g/ha", "value": 100}, {"measurement": "Barnyardgrass plant response rating", "setting": "[16]; Rate 500 g/ha", "value": 100}, {"measurement": "Plant response rating, Barnyardgrass", "setting": "[16]; Rate 62 g/ha", "value": 0}, {"measurement": "Plant response rating, Barnyardgrass", "setting": "[16]; Rate 125 g/ha", "value": 50}, {"measurement": "Plant response rating (scale 0 to 100), Barnyardgrass", "setting": "[16]; [22]", "value": 0}, {"measurement": "Plant response rating (scale 0 to 100), Barnyardgrass", "setting": "[16]; [23]", "value": 0}, {"measurement": "Rice plant response rating", "setting": "rice (Oryza saliva); Rate 250 g/ha", "value": 20}, {"measurement": "Rice plant response rating", "setting": "rice (Oryza saliva); Rate 500 g/ha", "value": 40}, {"measurement": "Plant response rating, Rice", "setting": "rice (Oryza saliva); Rate 62 g/ha", "value": 0}, {"measurement": "Plant response rating, Rice", "setting": "rice (Oryza saliva); Rate 125 g/ha", "value": 20}, {"measurement": "Plant response rating (scale 0 to 100), Rice", "setting": "rice (Oryza saliva); [22]", "value": 0}, {"measurement": "Plant response rating (scale 0 to 100), Rice", "setting": "rice (Oryza saliva); [23]", "value": 0}, {"measurement": "Plant response rating (0 to 100), Sunflower", "setting": "Sunflower [17]", "value": 10}]}
